Laboratory results reported in EPA's ToxRefDB 2.

Experiments:
[1] = system: rat; conditions: Subchronic oral toxicity in rodents, sprague dawley, Feed, dose end: 13 week, group: systemic
[2] = system: dog; conditions: Subchronic oral toxicity in nonrodent, beagle, Capsule, dose end: 90 day, group: systemic, systemic / clinical chemistry / albumin-globulin ratio / albumin-globulin ratio + systemic / clinical chemistry / cholesterol / cholesterol…
[3] = system: rat; conditions: Multigenerational reproductive toxicity study, other, Oral, Feed, dose end: 2 generation
[4] = system: rat; conditions: Subchronic oral toxicity in rodents, sprague dawley, Feed, dose end: 90 day, group: systemic
[5] = system: mouse; conditions: Carcinogenicity, cd1, Oral, Feed, dose end: 82 week, group: systemic
[6] = system: dog; conditions: Chronic toxicity; beagle; Oral; Capsule; dose end: 52 week; group: systemic; systemic / in life observation / clinical signs / abnormal movements + systemic / in life observation / clinical signs / altered breathing …
[7] = system: mouse; conditions: Subchronic oral toxicity in rodents, cd1, Feed, dose end: 13 week, group: systemic
[8] = system: rat; conditions: Combined chronic toxicity/carcinogenicity, fischer, Oral, Feed, dose end: 24 month, group: systemic
[9] = system: mouse; conditions: Subchronic oral toxicity in rodents, cd1, Feed, dose end: 4 week, group: systemic
[10] = system: rat; conditions: Subchronic oral toxicity in rodents, fischer, Feed, dose end: 13 week
[11] = system: rat; conditions: Combined chronic toxicity/carcinogenicity, sprague dawley, Oral, Feed, dose end: 2 year
[12] = system: dog; conditions: Chronic toxicity, beagle, Oral, Feed, dose end: 52 week
[13] = system: dog; conditions: Subchronic oral toxicity in nonrodent, beagle, Feed, dose end: 13 week, group: systemic, systemic / hematology / erythrocyte (rbc) count differential / erythrocyte (rbc) + systemic / in life observation / body weight / body …
[14] = system: dog; conditions: Subchronic oral toxicity in nonrodent, beagle, Feed, dose end: 6 month
[15] = system: rat; conditions: Prenatal developmental toxicity study, fischer, Oral, Feed, dose end: 15 GD
[16] = system: mouse; conditions: Carcinogenicity, cd1, Oral, Feed, dose end: 97 week, group: systemic
[17] = system: rat; conditions: Multigenerational reproductive toxicity study, other, Oral, Feed, dose end: 2 generation; remark: listed apart in the source
[18] = systemic / in life observation / body weight / body weight gain + systemic / in life observation / food consumption / food efficiency + …
[19] = group: offspring, systemic / in life observation / body weight / offspring (pup) weight
[20] = group: parental, systemic / in life observation / body weight / body weight + systemic / in life observation / body weight / body weight gain + systemic / …
[21] = systemic / clinical chemistry / albumin / albumin + systemic / clinical chemistry / cholesterol / cholesterol + systemic / clinical …
[22] = systemic / in life observation / body weight / body weight gain
[23] = systemic / clinical chemistry / creatinine / creatinine
[24] = systemic / organ weight / thyroid gland / absolute + systemic / organ weight / thyroid gland / relative to body weight
[25] = systemic / organ weight / spleen / absolute
[26] = group: cholinesterase, cholinesterase / cholinesterase / cholinesterase / brain cholinesterase (che)
[27] = group: systemic, systemic / clinical chemistry / calcium / calcium + systemic / hematology / leukocyte (wbc) count differential / leukocyte (wbc) + systemic…
[28] = group: cholinesterase, cholinesterase / cholinesterase / cholinesterase / erythrocyte cholinesterase (che)
[29] = group: cholinesterase, cholinesterase / cholinesterase / cholinesterase / erythrocyte cholinesterase (che) + cholinesterase / cholinesterase / cholinesterase / …
[30] = group: systemic, systemic / pathology microscopic / spleen / hematopoietic cell proliferation
[31] = group: systemic, systemic / pathology microscopic / spleen / hematopoietic cell proliferation + systemic / hematology / erythrocyte (rbc) count differential…
[32] = group: cholinesterase, cholinesterase / cholinesterase / cholinesterase / brain cholinesterase (che) + cholinesterase / cholinesterase / cholinesterase / …
[33] = group: cholinesterase, cholinesterase / cholinesterase / cholinesterase / plasma cholinesterase (che)
[34] = group: systemic, systemic / hematology / erythrocyte (rbc) count differential / erythrocyte (rbc) + systemic / hematology / hematocrit (hct) / hematocrit (…
[35] = group: systemic, systemic / clinical chemistry / alanine aminotransferase (alt/sgpt) / alanine aminotransferase (alt/sgpt) + systemic / organ weight / liver…
[36] = group: developmental, developmental / developmental malformation / bone / bipartite ossification + developmental / developmental malformation / general / crown-…
[37] = group: maternal, systemic / in life observation / body weight / body weight gain + reproductive / reproductive performance / pregnancy / pregnancy + …
[38] = systemic / clinical chemistry / alanine aminotransferase (alt/sgpt) / alanine aminotransferase (alt/sgpt) + systemic / clinical chemistry / …
[39] = group: offspring, developmental / offspring survival late / viability index / viability index
[40] = group: offspring, developmental / offspring survival late / viability index / viability index + systemic / in life observation / body weight / offspring (pup…
[41] = group: parental, systemic / in life observation / body weight / body weight + systemic / in life observation / body weight / body weight gain + systemic / in…

## Cn1sc2c(c1=O)CCC2 [2-Methyl-5,6-dihydro-2H-cyclopenta[d][1,2]thiazol-3(4H)-one]
[1]; systemic / in life observation / body weight / body weight gain + systemic / in life observation / food consumption / food efficiency
  LOAEL: 23.2 mg/kg/day
[1]; [18]
  LEL: 23.2 mg/kg/day
  NEL: 4.6 mg/kg/day
  NOAEL: 4.6 mg/kg/day

## C#CCC1=C(C)C(OC(=O)C2C(C=C(C)C)C2(C)C)CC1=O (stereo unspecified) [Prallethrin]
[2]
  LEL: 10 mg/kg/day
  LOAEL: 10 mg/kg/day
  NEL: 3 mg/kg/day
  NOAEL: 3 mg/kg/day
[3]; [19]
  LEL: 156 mg/kg/day
  LOAEL: 156 mg/kg/day
  NEL: 31 mg/kg/day
  NOAEL: 31 mg/kg/day
[3]; [20]
  LOAEL: 156 mg/kg/day
  NEL: 6 mg/kg/day
  NOAEL: 31 mg/kg/day
[3]; group: parental, systemic / in life observation / body weight / body weight gain
  LEL: 31 mg/kg/day
[4]; [21]
  LOAEL: 230 mg/kg/day
  NEL: 24 mg/kg/day
  NOAEL: 79.1 mg/kg/day
[4]; systemic / clinical chemistry / protein / protein + systemic / organ weight / kidney / absolute + systemic / hematology / eosinophils / …
  LEL: 79.1 mg/kg/day
[5]; [22]
  LOAEL: 347 mg/kg/day
[5]; systemic / in life observation / body weight / body weight gain + systemic / organ weight / liver / nos
  NOAEL: 68 mg/kg/day
[5]; systemic / in life observation / clinical signs / fur (altered appearance)
  LEL: 68 mg/kg/day
[5]; systemic / in life observation / clinical signs / fur (altered appearance) + systemic / organ weight / kidney / nos + systemic / organ …
  NEL: 13 mg/kg/day
[6]
  LEL: 5 mg/kg/day
  LOAEL: 5 mg/kg/day
  NEL: 2.5 mg/kg/day
  NOAEL: 2.5 mg/kg/day
[7]; [23]
  LEL: 39 mg/kg/day
  NEL: < 39 mg/kg/day
[7]; systemic / in life observation / body weight / body weight + systemic / in life observation / body weight / body weight gain
  LOAEL: 1840 mg/kg/day
[7]; systemic / in life observation / body weight / body weight + systemic / in life observation / body weight / body weight gain + systemic / …
  NOAEL: 808 mg/kg/day
[8]; [22]
  LOAEL: 83.5 mg/kg/day
[8]; systemic / in life observation / body weight / body weight gain + systemic / clinical chemistry / cholesterol / cholesterol + systemic / …
  NOAEL: 16.3 mg/kg/day
[8]; [24]
  LEL: 4 mg/kg/day
  NEL: < 4 mg/kg/day

## CSC(C)=NOC(=O)N(C)SN(C)C(=O)ON=C(C)SC [Thiodicarb]
[9]; [22]
  LOAEL: 734 mg/kg/day
[9]; [25]
  LEL: 6.2 mg/kg/day
  NEL: < 6.2 mg/kg/day
[9]; systemic / organ weight / spleen / absolute + systemic / in life observation / body weight / body weight gain + systemic / in life …
  NOAEL: 346 mg/kg/day
[10]; [26]
  LEL: 30 mg/kg/day
  LOAEL: > 30 mg/kg/day
  NEL: 10 mg/kg/day
  NOAEL: ≥ 30 mg/kg/day
[10]; [27]
  LOAEL: > 30 mg/kg/day
  NEL: 3 mg/kg/day
  NOAEL: ≥ 30 mg/kg/day
[10]; group: systemic, systemic / hematology / leukocyte (wbc) count differential / leukocyte (wbc) + systemic / in life observation / body weight / body weight
  LEL: 10 mg/kg/day
[11]; [28]
  LEL: 15 mg/kg/day
  LOAEL: 15 mg/kg/day
[11]; [29]
  NEL: 4.5 mg/kg/day
  NOAEL: 4.5 mg/kg/day
[11]; [30]
  LEL: 12 mg/kg/day
  LOAEL: 12 mg/kg/day
[11]; [31]
  NEL: 3.3 mg/kg/day
  NOAEL: 3.3 mg/kg/day
[12]; [32]
  LOAEL: 12.8 mg/kg/day
  NOAEL: 4.4 mg/kg/day
[12]; [33]
  LEL: 4.5 mg/kg/day
  NEL: < 4.5 mg/kg/day
[12]; [34]
  LEL: 38.3 mg/kg/day
  LOAEL: 38.3 mg/kg/day
  NEL: 12.8 mg/kg/day
  NOAEL: 12.8 mg/kg/day
[13]
  LEL: 40 mg/kg/day
  LOAEL: 40 mg/kg/day
  NEL: 15 mg/kg/day
  NOAEL: 15 mg/kg/day
[14]; [29]
  LEL: 45 mg/kg/day
  LOAEL: 45 mg/kg/day
  NEL: 15 mg/kg/day
  NOAEL: 15 mg/kg/day
[14]; [35]
  LEL: 45 mg/kg/day
  LOAEL: 45 mg/kg/day
  NEL: 15 mg/kg/day
  NOAEL: 15 mg/kg/day
[15]; [36]
  LEL: 100 mg/kg/day
  LOAEL: 100 mg/kg/day
  NEL: 3 mg/kg/day
  NOAEL: 3 mg/kg/day
[15]; group: maternal, reproductive / reproductive performance / pregnancy / pregnancy
  LEL: 3 mg/kg/day
[15]; group: maternal, systemic / in life observation / body weight / body weight gain
  LOAEL: 1 mg/kg/day
[15]; [37]
  NEL: 1 mg/kg/day
  NOAEL: 0.5 mg/kg/day
[16]; [38]
  LOAEL: 1000 mg/kg/day
  NOAEL: 70 mg/kg/day
[16]; systemic / in life observation / body weight / body weight + systemic / organ weight / kidney / absolute + systemic / organ weight / kidney…
  NEL: 5 mg/kg/day
[16]; systemic / pathology gross / spleen / enlarged + systemic / organ weight / liver / absolute + systemic / organ weight / spleen / absolute + …
  LEL: 70 mg/kg/day
[17]; [39]
  LOAEL: 5 mg/kg/day
  NOAEL: < 5 mg/kg/day
[17]; [40]
  LEL: 5 mg/kg/day
  NEL: < 5 mg/kg/day
[17]; [41]
  LEL: 15 mg/kg/day
  LOAEL: 15 mg/kg/day
  NEL: 5 mg/kg/day
  NOAEL: 5 mg/kg/day
